Patent US10160812B2, “Bispecific HER2 antibodies” (MedImmune, LLC, priority 2014, dated 2018)

Legend:
SKBR-3 = assay: In vitro cytotoxic activity (Cell Titer Glo); assay type: cell-based, human; details: SKBR-3, 3 to 4 days; read-out: In vitro potency (EC50 in pM)
Procedure: (§3) A panel of human cancer cell lines expressing various levels of HER2 was used to evaluate the cytotoxic activity of bispecific ADC (Table 5 in Example 1). Briefly, cells were harvested, resuspended, and plated in serum-containing culture media at a density of 5,000 to 20,000 per well (depending on the growth kinetics of each cell line) of 96-well plates in a volume of 100 μL. A 2× concentration of each dose of antibody or ADC to be tested was prepared by diluting the test articles in culture medium. One hundred microliters of each test article was added to cells in triplicate such that the final dose curve ranged from 5 nM down to 0.08 pM in a stepwise 1:4 serial dilution series. The treated cells were incubated at 37° C./5% CO2 for 3 to 4 days, depending on the growth kinetics of each particular cell line. Cell viability was determined using Cell Titer Glo according to manufacturer's instructions. Data are analyzed by the GraphPad Prism software and presented as percent growth inhibition relative to the untreated control. EC50 values were determined using Sigmoidal non-linear regression analysis with GraphPad Prism software and were summarized in Table 6.

MDA-MB-361 = assay: In vitro cytotoxic activity (Cell Titer Glo); assay type: cell-based, human; details: MDA-MB-361, 3 to 4 days; read-out: In vitro potency (EC50 in pM)
Procedure: as §3

RT-112 = assay: In vitro cytotoxic activity (Cell Titer Glo); assay type: cell-based, human; details: RT-112, 3 to 4 days
Procedure: (§4) Briefly, cells were harvested, resuspended, and plated in serum-containing culture media at a density of 5,000 to 20,000 per well (depending on the growth kinetics of each cell line) of 96-well plates in a volume of 100 μL. A 2× concentration of each dose of antibody or ADC to be tested was prepared by diluting the test articles in culture medium. One hundred microliters of each test article was added to cells in triplicate such that the final dose curve ranged from 5 nM down to 0.08 pM in a stepwise 1:4 serial dilution series. The treated cells were incubated at 37° C./5% CO2 for 3 to 4 days, depending on the growth kinetics of each particular cell line. Cell viability was determined using Cell Titer Glo according to manufacturer's instructions. Data are analyzed by the GraphPad Prism software and presented as percent growth inhibition relative to the untreated control.

MCF-7 = assay: In vitro cytotoxic activity (Cell Titer Glo); assay type: cell-based, human; details: MCF-7, 3 to 4 days
Procedure: as §4

MDA-MB-361 model = assay: CBX xenograft tumor model; assay type: in vivo, Athymic nude mice; details: MDA-MB-361 CBX, 3 mg/kg
Procedure: All mouse experiments were carried out in compliance with the guidelines published by the Association for Assessment and Accreditation of Laboratory Animal Care (AAALAC) and protocols approved by the MedImmune Institutional Animal Care and Use Committee. Athymic nude mice between 4-8 weeks of age were used in the studies. In subcutaneous CBX models, animals were injected unilaterally on the right flank with tumor cells harvested from culture at a specific passage lot. In orthotopic CBX models, xenografts were established by injecting 5×10^6 cells per mouse (suspended in 50% matrigel) into the mammary fat pad on the right flank of animals. In PDX models, animals are implanted unilaterally on the flank with tumor fragments harvested from host animals each implanted from a specific passage lot. Pre-study tumor volumes were recorded for each experiment beginning approximately one week prior to its estimated start date. When tumors reach the appropriate tumor volume initiation (TVI) range (typically 150-250 mm^3), animals are randomized into treatment and control groups and dosing initiated. […] Animals were observed daily and tumor dimensions and body weights were measured and recorded twice weekly. Tumor volumes are calculated using the following formula: tumor volume=π÷6 (length×width^2). […]

MDA-MB-361 cells = assay type: cell-based, human; details: MDA-MB-361, 10 pM, relative to untreated control
Procedure: MDA-MB-361 cells were cultured under standard tissue culture conditions in Leibovitz's L-15 medium supplemented with 20% FBS. Cells were harvested by trypsinization, washed twice with PBS, and resuspended to 30,000 cells per mL in stem cell medium (SCM: DMEM/F12 supplemented with 20 ng/mL EGF, 10 ng/mL bFGF, 5 mg/mL insulin, 0.4% BSA and 1% knock-out serum replacement). […] At the end of treatment, the primary spheres were harvested, dissociated using 0.05% trypsin and resuspended at a density of 30,000 cells/mL in SCM containing the same antibody treatment as the primary sphere culture. Cells were then plated in triplicate into 96-well ultra-low attachment plates and incubated for 4 days. Sphere cell viability was determined using Cell Titer Glo according to manufacturer's instructions. Data are presented as fold of CSC sphere formation relative to the untreated control.

mouse Her2 [1] = molecular target: T1, mouse Her2 (Mus musculus, UniProt P70424); assay: ProteOn SPR binding of 39S to captured Mouse Her2; details: Mouse Her2 control
From the text: The variant nomenclature denotes types of variants (KO/KI) and the swapped regions with amino acid numbering. Amino acid positions were denoted basing on the numbering scheme of mature human HER2 sequences without its signal peptide. The expression levels of all variants were monitored by an anti-His polyclonal antibody. The binding profiles of 39S to these variants were characterized using a SPR based instrument ProteOn™ by capturing variants on sensor surfaces using anti-human and mouse Her2 polyclonal antibodies.
The binding characteristics of 39S to chimeric human/mouse variants were studied using a ProteOn™ XPR36 instrument (BioRad). Standard amine coupling was used to immobilize an anti-human or mouse Her2 polyclonal antibody (R&D System) in 10 mM sodium acetate (pH 5.0) to the surface of a GLC biosensor chip at ˜5000 resonance units (RU) for each channel. The chimeric proteins in cell culture supernatant were injected and captured by anti-human or mouse polyclonal antibodies onto the GLC surface with a ˜200RU response. Anti-HER2 mAb 39S was diluted in phosphate-buffered saline (PBS) (pH 7.4) with 0.005% Tween-20 from 10 nM to 0.625 nM (1:2 dilution), and injected at 100 μL/min for 180 sec with a 600-second dissociation time. Expression levels of chimeric variants were monitored by flowing anti-His polyclonal antibody (MedImmune) under the same conditions as injecting 39S. […]
Target sequence in this assay (P70424 23-1256): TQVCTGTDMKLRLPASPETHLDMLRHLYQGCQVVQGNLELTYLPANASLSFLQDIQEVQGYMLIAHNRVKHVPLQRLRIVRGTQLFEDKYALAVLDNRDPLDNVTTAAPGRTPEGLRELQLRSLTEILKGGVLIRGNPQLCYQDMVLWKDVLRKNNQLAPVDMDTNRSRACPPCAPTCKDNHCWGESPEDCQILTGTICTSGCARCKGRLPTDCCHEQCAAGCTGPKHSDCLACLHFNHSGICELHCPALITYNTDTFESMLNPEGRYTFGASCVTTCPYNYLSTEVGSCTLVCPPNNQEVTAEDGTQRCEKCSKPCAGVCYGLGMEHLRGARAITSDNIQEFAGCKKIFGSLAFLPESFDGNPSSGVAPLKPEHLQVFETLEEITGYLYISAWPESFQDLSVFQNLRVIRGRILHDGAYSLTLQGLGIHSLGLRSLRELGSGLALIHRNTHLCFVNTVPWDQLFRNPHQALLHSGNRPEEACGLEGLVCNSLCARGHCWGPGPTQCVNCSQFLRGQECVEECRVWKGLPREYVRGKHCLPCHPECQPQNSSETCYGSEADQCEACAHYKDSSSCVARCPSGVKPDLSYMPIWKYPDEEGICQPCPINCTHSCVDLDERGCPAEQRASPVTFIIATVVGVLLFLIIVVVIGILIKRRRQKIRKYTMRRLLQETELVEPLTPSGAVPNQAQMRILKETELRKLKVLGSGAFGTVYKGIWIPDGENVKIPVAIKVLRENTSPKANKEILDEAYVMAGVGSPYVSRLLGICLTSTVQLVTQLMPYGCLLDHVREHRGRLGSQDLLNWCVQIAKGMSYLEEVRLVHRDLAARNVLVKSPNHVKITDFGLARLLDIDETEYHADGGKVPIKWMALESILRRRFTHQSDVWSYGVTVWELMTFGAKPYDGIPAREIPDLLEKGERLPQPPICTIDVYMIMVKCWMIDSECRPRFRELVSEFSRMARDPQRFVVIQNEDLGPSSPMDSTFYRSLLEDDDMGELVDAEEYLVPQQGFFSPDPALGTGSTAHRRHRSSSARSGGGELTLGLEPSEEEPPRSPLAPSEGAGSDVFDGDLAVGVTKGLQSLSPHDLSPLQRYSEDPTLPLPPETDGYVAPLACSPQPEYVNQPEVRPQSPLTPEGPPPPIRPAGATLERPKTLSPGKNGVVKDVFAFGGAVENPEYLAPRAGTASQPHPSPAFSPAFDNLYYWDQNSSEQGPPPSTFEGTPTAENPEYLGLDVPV

MCF-7 cells = assay: Ligand-dependent proliferation inhibition assay; assay type: cell-based, human; details: in combination with trastuzumab or pertuzumab
Procedure: Cell viability was determined using Cell Titer Glo from Promega according to manufacturer's instructions.

HER2 = HER2 (Homo sapiens, UniProt P04626); assay: Capture ELISA binding specificity / species cross-reactivity; parameters: recombinant extracellular domain proteins: human EGFR, human HER2, human HER3, human HER4, mouse Her2, or cynomolgus monkey Her2; details: recombinant extracellular domain protein
From the text: (§1) To determine whether 39S retains the binding specificity and species cross-reactivity of its parental antibody AZ1.39.1, binding of 39S to the receptors of human ErbB family (EGFR, HER2, HER3, and HER4), the mouse Her2, and the cynomolgus monkey Her2 was examined by capture ELISA. Briefly, 96-well plates were coated with one of the following recombinant extracellular domain proteins: human EGFR, human HER2, human HER3, human HER4, mouse Her2, or cynomolgus monkey Her2. Antibody to be tested was prepared by diluting in a stepwise 1:3 serial dilution ranging from 50 nM down to 0.28 pM and then added to the wells in duplicate. After one hour of incubation, plates were washed, and goat anti-human IgG Fab HRP-conjugated secondary antibody was added to each well and the plates were incubated for 1 hour. The plates were washed and TMB substrate was added and incubated for 5-20 min to allow color development. The stop solution was added to the wells at the end of reaction and the plates were read at 450 nm. Binding signal (absorbance at 450 nm) was plotted against antibody concentration using Prism software.
(§2) Binding specificity and species cross-reactivity of bispecific antibodies to the recombinant extracellular domain protein of human EGFR, human HER2, human HER3, human HER4, mouse Her2, or cynomolgus monkey Her2 were determined by capture ELISA as described in Example 1. […]

mouse Her2 [2] = molecular target: T1, mouse Her2; assay: as above; parameters: recombinant extracellular domain proteins: human EGFR, human HER2, human HER3, human HER4, mouse Her2, or cynomolgus monkey Her2; details: recombinant extracellular domain protein
From the text: as §1, §2
Target sequence in this assay (P70424 23-653 limits assumed): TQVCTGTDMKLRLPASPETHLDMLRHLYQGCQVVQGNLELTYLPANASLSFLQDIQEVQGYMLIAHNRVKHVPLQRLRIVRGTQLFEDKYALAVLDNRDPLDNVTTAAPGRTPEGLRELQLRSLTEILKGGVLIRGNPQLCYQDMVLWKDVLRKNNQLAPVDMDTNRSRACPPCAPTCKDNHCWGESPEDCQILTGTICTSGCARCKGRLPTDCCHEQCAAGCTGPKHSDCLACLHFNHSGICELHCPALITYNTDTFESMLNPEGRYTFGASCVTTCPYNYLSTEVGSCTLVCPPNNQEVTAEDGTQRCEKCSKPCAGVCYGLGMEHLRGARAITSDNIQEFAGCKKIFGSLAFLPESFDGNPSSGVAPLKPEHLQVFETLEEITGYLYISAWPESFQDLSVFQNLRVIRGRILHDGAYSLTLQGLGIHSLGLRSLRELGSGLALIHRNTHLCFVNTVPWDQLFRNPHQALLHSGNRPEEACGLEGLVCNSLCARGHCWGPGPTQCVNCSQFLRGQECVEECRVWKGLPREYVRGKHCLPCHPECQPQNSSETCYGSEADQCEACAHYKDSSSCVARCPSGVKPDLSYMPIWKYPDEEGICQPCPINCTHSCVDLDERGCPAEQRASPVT

Row | The binding affinity of 39S (KD) (mouse Her2 [1]) | binding by capture ELISA (HER2) | binding by capture ELISA (mouse Her2 [2]) | Molecule | EC50 (SKBR-3) [pM] | EC50 (MDA-MB-361) [pM] | In vitro potency (EC50 in pM) (RT-112) | In vitro potency (EC50 in pM) (MCF-7) | in vivo activity (tumor growth) (MDA-MB-361 model) | inhibition of CSC sphere formation (MDA-MB-361 cells) | inhibition of ligand-dependent proliferation in combination (MCF-7 cells)
1 |  |  |  | T-DM1 [reference compound] | 82.6 | 266 | Inactive | Inactive | limited activity | no activity | 
2 | No | can bind | not | 39S: lead optimized monoclonal antibody derived from the 1.39.1 antibody; VH SEQ ID NO:15, VL SEQ ID NO:16 (antibody, V domains shown) VH: EVQLVESGGGLVKPGGSLRLSCAASGFTFSSYSMSWVRQAPGKGLEWVSSISSSSSYIYYADSVKGRFTISRDNAKNSLYLQMNSLRAEDTAVYYCARGGDAYNYYYFDYWGQGTLVTVSS VL: DIVMTQTPLSLSVTPGQPASISCKSSQSVFFRSNNKNILAWYLQKPGQPPQLLIYWASSRESGVPDRFSGSGSGTDFTLKISRVEAEDVGVYYCQQYFGSPFTFGPGTKVDIK |  |  |  |  |  |  | additive or synergistic inhibition
